# “And” between values parts separate entries of the source, which are not always exact repeats. Equal entries are not always repeated. Toxic doses and inconclusive results are not listed.
# Test system: BDF1 mice, Lewis lung carcinoma iv, survival T/C
# Test: NCI In Vivo Anticancer Drug Screen. Data for tumor model Lewis Lung Carcinoma (intravenous) in B6D2F1 (BDF1) mice
# Settings: endpoint: median survival time, higher = longer survival
# Description: The antitumor activity of compounds was measured in mice bearing transplantable tumors. Survival or tumor size were measured and the results are expressed as the measurement made in the treated group (T) divided by the measurement made in the vehicle treated control group (C). The tumor model used in this assay is Lewis Lung Carcinoma (intravenous) in B6D2F1 (BDF1) mice
# [1] = dose: 12.5 mg/kg/injection, schedule: Q01DX009 (ip), vehicle: saline
# [2] = dose: 25.0 mg/kg/injection, schedule: Q01DX009 (ip), vehicle: saline
# [3] = dose: 50.0 mg/kg/injection, schedule: Q01DX009 (ip), vehicle: saline
# [4] = dose: 100.0 mg/kg/injection, schedule: Q01DX009 (ip), vehicle: saline
# [5] = dose: 200.0 mg/kg/injection, schedule: Q01DX009 (ip), vehicle: saline
structure (smiles),measurement,setting,value
O=P1(N(CCCl)CCCl)NCCCO1 (configuration not stated),T/C,"dose: 39.0 mg/kg/injection, schedule: Q01DX001 (ip), vehicle: saline",119 % of control
same,T/C,"dose: 50.0 mg/kg/injection, schedule: Q01DX001 (ip), vehicle: saline",155 % of control
same,T/C,"dose: 78.0 mg/kg/injection, schedule: Q01DX001 (ip), vehicle: saline",174 % of control
same,T/C,"dose: 133.0 mg/kg/injection, schedule: Q10DX002 (ip), vehicle: saline",168 % of control
same,T/C,"dose: 200.0 mg/kg/injection, schedule: Q10DX002 (ip), vehicle: saline",155 % of control
NC(=O)c1cn(C2OC(CO)C(O)C2O)c2ncnc(N)c12 (configuration not stated),T/C,"dose: 0.38 mg/kg/injection, schedule: Q01DX009 (ip), vehicle: Klucel (hydroxypropylcellulose) (HPC)",95 % of control
same,T/C,"dose: 0.75 mg/kg/injection, schedule: Q01DX009 (ip), vehicle: Klucel (hydroxypropylcellulose) (HPC)",101 % of control
same,T/C,"dose: 1.5 mg/kg/injection, schedule: Q01DX009 (ip), vehicle: Klucel (hydroxypropylcellulose) (HPC)",92 % of control
O=C(NCCCCCCNC(=O)N1CC1)N1CC1,T/C,"dose: 0.3 mg/kg/injection, schedule: Q01DX009 (ip), vehicle: saline",104 % of control
same,T/C,"dose: 0.6 mg/kg/injection, schedule: Q01DX009 (ip), vehicle: saline",119 % of control
same,T/C,"dose: 1.2 mg/kg/injection, schedule: Q01DX009 (ip), vehicle: saline",115 % of control
same,T/C,"dose: 2.4 mg/kg/injection, schedule: Q01DX009 (ip), vehicle: saline",120 % of control
CCc1cc(C(N)=S)ccn1,T/C,"dose: 72.0 mg/kg/injection, schedule: Q01DX007 (ip), vehicle: Klucel (hydroxypropylcellulose) (HPC)",96 % of control
same,T/C,"dose: 102.9 mg/kg/injection, schedule: Q01DX007 (ip), vehicle: Klucel (hydroxypropylcellulose) (HPC)",95 % of control
same,T/C,"dose: 147.0 mg/kg/injection, schedule: Q01DX007 (ip), vehicle: Klucel (hydroxypropylcellulose) (HPC)",86 % of control
same,T/C,"dose: 300.0 mg/kg/injection, schedule: Q01DX007 (ip), vehicle: Klucel (hydroxypropylcellulose) (HPC)",99 % of control
O=C1C(Cl)=C(Cl)C(=O)C2=C1C1c3ccccc3C2c2ccccc21,T/C,"dose: 12.5 mg/kg/injection, schedule: Q01DX009 (ip), vehicle: saline with Tween-80",104 % of control
same,T/C,"dose: 25.0 mg/kg/injection, schedule: Q01DX009 (ip), vehicle: saline with Tween-80",103 % of control
same,T/C,"dose: 50.0 mg/kg/injection, schedule: Q01DX009 (ip), vehicle: saline with Tween-80",103 % of control
NC1=NC(=O)N2CC12 (configuration not stated),T/C,[1],107 % of control
same,T/C,[2],110 % of control
same,T/C,[3],105 % of control
same,T/C,[4],105 % of control
same,T/C,[5],109 % of control
S=c1nc[nH]c2nc[nH]c12,T/C,"dose: 7.5 mg/kg/injection, schedule: Q01DX009 (ip), vehicle: Klucel (hydroxypropylcellulose) (HPC)",97 % of control
same,T/C,"dose: 15.0 mg/kg/injection, schedule: Q01DX005 (ip), vehicle: Klucel (hydroxypropylcellulose) (HPC)",98 % of control
same,T/C,"dose: 15.0 mg/kg/injection, schedule: Q01DX009 (ip), vehicle: Klucel (hydroxypropylcellulose) (HPC)",113 % of control and 87 % of control
same,T/C,"dose: 30.0 mg/kg/injection, schedule: Q01DX005 (ip), vehicle: Klucel (hydroxypropylcellulose) (HPC)",122 % of control
same,T/C,"dose: 30.0 mg/kg/injection, schedule: Q01DX009 (ip), vehicle: Klucel (hydroxypropylcellulose) (HPC)",92 % of control and 108 % of control
same,T/C,"dose: 60.0 mg/kg/injection, schedule: Q01DX005 (ip), vehicle: Klucel (hydroxypropylcellulose) (HPC)",93 % of control
same,T/C,"dose: 120.0 mg/kg/injection, schedule: Q01DX005 (ip), vehicle: Klucel (hydroxypropylcellulose) (HPC)",103 % of control
same,T/C,"dose: 240.0 mg/kg/injection, schedule: Q01DX005 (ip), vehicle: Klucel (hydroxypropylcellulose) (HPC)",95 % of control
CN1C(=O)NC(c2ccc(Cl)cc2)(c2ccc(Cl)cc2)C1=O,T/C,"dose: 12.5 mg/kg/injection, schedule: Q01DX009 (ip), vehicle: distilled water + Tween-80",102 % of control
same,T/C,"dose: 25.0 mg/kg/injection, schedule: Q01DX009 (ip), vehicle: distilled water + Tween-80",124 % of control
same,T/C,"dose: 50.0 mg/kg/injection, schedule: Q01DX009 (ip), vehicle: distilled water + Tween-80",116 % of control
same,T/C,"dose: 200.0 mg/kg/injection, schedule: Q01DX009 (ip), vehicle: distilled water + Tween-80",105 % of control
O=c1oc2c(O)c(O)cc3c(=O)oc4c(O)c(O)cc1c4c23,T/C,"dose: 12.5 mg/kg/injection, schedule: Q01DX009 (ip), vehicle: Klucel (hydroxypropylcellulose) (HPC)",102 % of control
same,T/C,"dose: 25.0 mg/kg/injection, schedule: Q01DX009 (ip), vehicle: Klucel (hydroxypropylcellulose) (HPC)",112 % of control
same,T/C,"dose: 50.0 mg/kg/injection, schedule: Q01DX009 (ip), vehicle: Klucel (hydroxypropylcellulose) (HPC)",116 % of control
same,T/C,"dose: 100.0 mg/kg/injection, schedule: Q01DX009 (ip), vehicle: Klucel (hydroxypropylcellulose) (HPC)",111 % of control
same,T/C,"dose: 400.0 mg/kg/injection, schedule: Q01DX009 (ip), vehicle: Klucel (hydroxypropylcellulose) (HPC)",121 % of control
CCOC(=O)C1=C(C#N)C2(CCC(OCc3ccccc3)CC2)C(=O)O1 (configuration not stated),T/C,[1],94 % of control
same,T/C,[2],95 % of control
same,T/C,[3],98 % of control
same,T/C,[4],106 % of control
same,T/C,[5],114 % of control
same,T/C,"dose: 400.0 mg/kg/injection, schedule: Q01DX009 (ip), vehicle: saline",89 % of control

# Source: PubChem BioAssay AID274 (DTP/NCI, 2004)
